Reference: US9889111B2, “Pharmaceutical composition comprising omega-(arylsulfonyl)alkylnitrile” (OLATEC THERAPEUTICS LLC, priority 2012, dated 2018)

Experiments:
[1] = test system: arachidonic acid-induced ear swelling; assay: Topical arachidonic acid-induced ear swelling model in mice (topical application); assay type: in vivo, mice (male ICR); settings: 20 μL applied 30 min before and 15 min after arachidonic acid, measured at 90 minutes
Description: The test compounds, indomethacin (positive control), and vehicle were evaluated for anti-inflammatory activity in a topical arachidonic acid-induced ear swelling model in mice. Male ICR mice weighing 22±2 g were used and randomly divided. Arachidonic Acid (0.5 mg in 20 μl of acetone:ethanol/1:1) was applied topically to the anterior and posterior surfaces of the right ear of each mice. Test compounds and vehicle, as listed in Table 1 were similarly applied 30 minutes before and 15 minutes after arachidonic acid application. The thickness of the right ear and the left ear was measured and the difference calculated as an indication of the inflammation in the right ear. Ear swelling was measured by a Dyer model micrometer gauge at 60 and 90 minutes after arachidonic acid application as an index of inflammation. Percent inhibition was calculated according to the formula: Ic−It/Ic×100, where Ic and It refers to increase of ear thickness (mm) in control and treated mice, respectively. ANOVA and Dunnett's test were employed to ascertain significant difference between vehicle control and treated groups. Significance is set at P<0.05 level. The test compounds, indomethacin (positive control), and vehicle were evaluated for anti-inflammatory activity in a topical arachidonic acid-induced ear swelling model in mice. Male ICR mice weighing 22±2 g were used and randomly divided; the test compound and vehicle control had 10 mice, and indomethacin had 5 mice. Arachidonic Acid (0.5 mg in 20 μl of acetone:ethanol/1:1) was applied topically to the anterior and posterior surfaces of the right ear of each mouse. Test substances and vehicle, as listed in Table 4 were similarly applied 30 min before and 15 min after arachidonic acid application. The thickness of the right ear and the left ear was measured and the difference calculated as an indication of the inflammation in the right ear. Ear swelling was measured by a Dyer model micrometer gauge at 60 and 90 minutes after arachidonic acid application as an index of inflammation. Percent inhibition was calculated according to the formula: Ic−It/Ic×100, where Ic and It refers to increase of ear thickness (mm) in control and treated mice, respectively. ANOVA and Dunnett's test were employed to ascertain significant difference between vehicle control and treated groups. Significance is set at P<0.05 level.

[2] = test system: arachidonic acid induced ear swelling; assay: Arachidonic acid induced ear swelling model in mice (oral administration); assay type: in vivo, mice (male ICR derived); settings: for % Inhibition (ear swelling): Table 8, oral gavage, test compound 30 mg/kg 1 hour before, dexamethasone 0.3 mg/kg 3 hour before arachidonic acid, measured at 90 minutes
Description: 3-[(4-Methylphenyl)sulfonyl]propionitrile was suspended in vehicle (1% Tween 80 in water) to 3 mg/mL. The test compound, dexamethasone (positive control in vehicle), and vehicle were orally administered to mice and evaluated for anti-inflammatory activity in the topical arachidonic acid induced ear swelling model in mice.
Male ICR derived mice weighing 22±2 g were used in this experiment. 10 mice were used for each group (active compound, positive control, and vehicle). All animals were maintained in a controlled temperature (22-24° C.) and humidity (60%-70%) environment with 12-hour light/dark cycles for at least one week prior to use.
Arachidonic acid (0.5 mg in 20 μL acetone) was applied topically onto the anterior and posterior surfaces of the right ear of test animals to induce inflammation. Active compound in vehicle (10 mL/kg) and vehicle (10 mL/kg, […]) was orally administered by gavage 1 hour before arachidonic acid, whereas dexamethasone was orally administered by gavage 3 hour before arachidonic acid challenge. At 60 minutes and 90 minutes after arachidonic acid induction of ear edema, the thickness of the right ear and the left ear was measured and the difference calculated as an indication of the inflammation in the right ear.

[3] = Table 7, test compounds 375 mM, indomethacin 14 mM
[4] = Table 6, test compounds 375 mM, indomethacin 14 mM (0.5% w/v)

N#CCCS(=O)(=O)c1ccc(Cl)c(Cl)c1 [3-(3,4-dichlorophenyl)sulfonylpropionitrile]
melting point: 137.7 to 140.2 °C | % Inhibition (ear swelling) [1, 3]: 28%

COc1ccc(S(=O)(=O)CCC#N)cc1 [3-(4-methoxyphenyl)sulfonylpropionitrile]
% Inhibition (ear swelling) [1, 3]: 23%

N#CCCS(=O)(=O)c1ccc2ccccc2c1 [3-(naphthalene-2-sulfonyl)propionitrile]
% Inhibition (ear swelling) [1, 4]: 25%

N#CCCS(=O)(=O)c1ccccc1 [3-(phenylsulfonyl)propionitrile]
% Inhibition (ear swelling) [1, 4]: 36%

N#CCCS(=O)(=O)c1ccc(Cl)cc1 [3-[(4-chlorophenyl)sulfonyl]propionitrile]
% Inhibition (ear swelling) [1, 4]: 20%

Cc1ccc(S(=O)(=O)CCC#N)cc1 [3-[(4-methylphenyl)sulfonyl]propionitrile]
% Inhibition (ear swelling) [2]: 16% | Inhibition in arachidonic acid induced ear swelling (in words) ([2]; oral administration, at 90 minutes): significant inhibition | % Inhibition (ear swelling) [1, 4]: 44%

C[C@@H]1C[C@H]2[C@@H]3CCC4=CC(=O)C=C[C@]4(C)[C@@]3(F)[C@@H](O)C[C@]2(C)[C@@]1(O)C(=O)CO [Dexamethasone, reference compound]
% Inhibition (ear swelling) [2]: 36%

COc1ccc2c(c1)c(CC(=O)O)c(C)n2C(=O)c1ccc(Cl)cc1 [Indomethacin, reference compound]
% Inhibition (ear swelling) [1, 4]: 57% | % Inhibition (ear swelling) [1, 3]: 58%
